{"source": "patent US6649605B2", "about": "“Treatment of tension-type headaches with NMDA receptor antagonists” (Head Explorer A/S, priority 1996, dated 2003)", "type_in_all_cases": "in vivo, human", "key": {"[1]": {"system": "patients with chronic tension-type headache", "assay": "Pressure pain detection thresholds (electronic pressure algometer) after L-NMMA", "from_the_text": "(§1) Sixteen patients with a diagnosis of chronic tension-type headache according to the criteria of the International Headache Society (Headache Classification Committee 1988) were included (Table XVII). Five of the patients had coexisting infrequent migraine (<four days/year). The patients were recruited from the out-patient headache clinic at Glostrup University Hospital without respect to presence or absence of myofascial tenderness. All patients underwent a general physical and a neurological examination and completed a diagnostic headache diary during a 4-week run-in period (Russell et al. 1992). […]\n(§2) The recordings were performed in a standardized manner by the same observer, a trained technician (HA), throughout the study. All parameters were recorded at baseline, 60 and 120 minutes after start of infusion. […] Headache intensity was measured on a 100 mm Visual Analog Scale (VAS) (0-no headache and 100-worst imaginable headache) before, during and after start of infusion.\nPressure pain thresholds Pressure pain detection thresholds (PPDTs) were measured at the dorsum of the second finger (middle phalanx) and at a fixed point at the anterior part of the temporal muscle as previously described (Bendtsen et al. 1996b). […] Each threshold was calculated as the mean of five consecutive determinations performed with intervals of approximately 30 seconds. […]"}, "[2]": {"system": "patients with chronic tension-type headache", "assay": "Total Tenderness Score of pericranial myofascial tissues after L-NMMA", "conditions": "6 mg/kg i.v., hydrochloride", "from_the_text": "as §1, §2\nTotal tenderness. […] Tenderness was scored on a 4-point (0-3) scale at each location (local tenderness score) and values from left and right sides were summed to a Total Tenderness Score (TTS) (maximum possible score=48). […]"}, "[3]": {"system": "patients with chronic tension-type headache", "assay": "Blood pressure, pulse rate, adverse events and rescue medication after L-NMMA infusion", "experimental": "Randomization (Med.Stat) and drug preparation were performed by staff not involved in the study. The medication was given over 15 minutes into an antecubital vein (Braun Perfusor). The following parameters were measured at baseline and […] post administration: headache intensity on a 100-mm Visual Analog Scale (VAS) (0-no headache and 100-worst imaginable headache) and on a Verbal Rating Scale (VRS) from 0-10 (0-no headache; 5-moderate headache; 10-worst imaginable headache). Blood pressure and pulse rate were measured 5 minutes prior to administration of treatment and at 5, 10, 15, 20, 25, 30, 60, 90 and 120 minutes post administration. Twelve-lead ECG was monitored continuously. Any adverse events were recorded. Patient with unrelieved headache at 120 minutes post treatment were allowed to take rescue medication. All patients were asked to record details of the following on a diary card at 4, 8, 12, 16, 20 and 24 hours post administration, headache intensity on VRS, any medication taken and adverse events. Between 4-7 days after each treatment, the patients returned to the clinic, the diary cards were collected and any adverse events were noted.\nPrimary endpoint was the reduction of pain intensity over time on active treatment compared to placebo. The secondary endpoints were reduction of pain intensity at 30, 60, 90 and 120 minutes post dosing on VAS and VRS compared to pre-treatment pain score within each treatment. Comparison of pain intensity on VAS, blood pressure and pulse rate over time between treatments were performed With ANOVA. Paired-Samples T Test was used to compare pre-treatment pain score on VAS with pain score at 30, 60, 90, 120 minutes post dosing within each treatment. The sum of differences between the pre-treatment VRS score and the VRS score at 30, 60, 90, 120 minutes post dosing was calculated in order to obtained a summary measure of pain score for each treatment (Matthews et al. 1990). These sums of differences for each treatment were compared by Wilcoxon Signed Rank test. Five percent was accepted as level of significance."}, "[4]": {"system": "trapezius muscle of patients with chronic tension-type headache", "assay": "Muscle hardness of the trapezius muscle (hardness meter) after L-NMMA", "conditions": "6 mg/kg i.v.", "from_the_text": "as §1\nMuscle hardness. The muscle hardness of the trapezius muscle was measured with a hardness meter, which has previously been described in detail (Horikawa et al. 1993). […]\nas §2\nMuscle hardness. The muscle hardness was measured at a standard anatomical point on the trapezius muscle On the non-dominant side, as previously described (Ashina et al. 1998b). […] The muscle hardness was calculated as the mean of five consecutive determinations. […]"}}, "note": "Values joined by “and” are separate entries in the source; they are usually repeats but may differ in a detail not shown here. Equal values may be shown once. “Also recorded” adds a separate entry of the source.", "data": [{"smiles": "CN=C(N)NCCC[C@H](N)C(=O)O.Cl", "note": "[L-NMMA, L-N^G methyl arginine hydrochloride]", "values": [{"measurement": "PPDTs compared with pre-treatment values", "setting": "[1]; finger and temporal region, hydrochloride", "result": "no changes in PPDTs at 60 and 120 minutes; also recorded: largely unchanged"}, {"measurement": "PPDTs compared with placebo", "setting": "[1]; finger p=0.78, temporal region p=0.77", "result": "no significant difference"}, {"measurement": "TTS compared with baseline", "setting": "[2]; p=0.007 and p=0.008", "result": "significantly reduced at 60 and 120 minutes; also recorded: significantly), reduced at 60 and 120 minutes"}, {"measurement": "Tenderness score (summary) compared with placebo", "setting": "[2]; p=0.11", "result": "tended to be reduced; also recorded: tended to be reduced more; also recorded: not significant"}, {"measurement": "Subjective symptoms reported (number of patients)", "setting": "[3]; 6 mg/kg i.v.", "result": "tiredness (2), dryness of the mouth (3), drowsiness (1), exhaustion (1), nausea (1) and a feeling of tingling in arm (1)"}, {"measurement": "MAP and pulse rate over time compared with placebo", "setting": "[3]; 6 mg/kg i.v., p=0.0001 and p=0.0001", "result": "changed significantly over time"}, {"measurement": "Time at which the difference in MAP and pulse rate to placebo disappeared", "setting": "[3]; after start of infusion", "result": 60, "unit": "min"}, {"measurement": "Maximum decrease in pulse rate", "setting": "[3]; occurred 10 minutes post dosing, 6 mg/kg i.v., hydrochloride, 6 mg/kg", "result": "16±2% and 16%"}, {"measurement": "Maximum increase in mean arterial blood pressure (MAP)", "setting": "[3]; occurred 15 minutes post dosing, 6 mg/kg i.v., hydrochloride, 6 mg/kg", "result": "12±2% and 12%"}, {"measurement": "Patients who reported subjective symptoms in relation to the infusion", "setting": "[3]; of 16 patients, 6 mg/kg i.v.", "result": "Seven"}, {"measurement": "Patients who used simple analgesics as rescue medication", "setting": "[3]; of 16 patients, 7 on placebo", "result": "Three"}, {"measurement": "Muscle hardness (summary score) compared with placebo", "setting": "[4]; p=0.04, hydrochloride", "result": "significantly more reduced; also recorded: reduces muscle hardness; also recorded: reduced significantly more; also recorded: significantly reduced"}, {"measurement": "Muscle hardness compared with baseline", "setting": "[4]; p=0.04 and p<0.05", "result": "significantly reduced at 60 and 120 minutes"}]}]}
